Data reported in patent US8932646B2, “Peroxide contact lens care solution” (Bausch & Lomb Incorporated, priority 2010, dated 2015).

Legend:
[1] = Peroxide neutralization rate profile in Clear Care® lens case with platinum element; format: physicochemical
Source text: All of the peroxide neutralization data described herein was obtained with a hydrogen peroxide lens case provided in a contact lens care product package sold as Clear Care® by CibaVision. The Clear Care® product packages with the included lens case were purchased in the United States in 2009-10. Each of the hydrogen peroxide neutralization profiles and rate constants (as well as calculated the half-lives) stated herein and in the claims were obtained with a Clear Care® lens case.
The line plots shown in FIG. 5B is determined from the peroxide neutralization data of FIG. 5A over the initial 60 minutes, i.e. at time of 0, 5 min, 15 min, 30 min and 60 min. […] The pseudo first-order rate constant is determined from the slope of the line plots.
The peroxide neutralization rate profiles of select disinfecting solutions were determined as follows. […] Aliquots of the solution are removed at the stated time points and the concentration of hydrogen peroxide is determined by known analytical methods.
The aliquots of solution are titrated with 0.1N potassium permanganate in the presence of an acidic aqueous solution. […] The sample is placed in the system and analyzed using a built-in hydrogen peroxide determination method. […] Once an endpoint is determined the instrument calculates the hydrogen peroxide concentration of the sample. […]

[2] = Osmolality after peroxide neutralization; format: physicochemical; details: disinfecting solution with 3 wt. % urea hydrogen peroxide

Row | Compound | effect on the rate of peroxide neutralization ([1]; 0.1 wt. % or 1000 ppm) | effect on the rate of peroxide neutralization ([1]; 100 ppm) | osmolality of the solution following neutralization of the peroxide [2]
1 | NCCS(=O)(=O)O [taurine] | much greater reduction in the rate of peroxide neutralization | very small effect on the rate of peroxide neutralization | –
2 | NC(N)=O.OO [urea hydrogen peroxide] | – | – | about 600 mOsmol/kg
